Source: patent US20220273530A1, “BIOADHESIVE PARTICLES COMPRISING ACTIVE AGENTS, AND USES THEREOF” (SKINOSIVE, priority 2019, published 2022)

Columns and labels:
[1] = cited from earlier work
[2] = λmax UV absorbance of free and encapsulated UV filter; assay type: physicochemical; conditions: free UV filter in ethanol
Method: λmax UV absorbance of free Uvinul A plus in ethanol was measured at 357 nm and λmax UV absorbance of Uvinul A plus encapsulated PLA-PEG-Mal particles in water was measured at 360 nm.

SMILES | UV filter logP [1] | λmax UV absorbance of free UV filter [2] [nm]
CC1CCC(C(C)C)C(OC(=O)c2ccccc2N)C1 (centres unmarked) [Meradimate] | 5.1 | 
CCCCC(CC)COC(=O)C(C#N)=C(c1ccccc1)c1ccccc1 (centres unmarked) [Octocrylene] | 7.1 | 304
CCCCC(CC)COC(=O)c1ccccc1O (centres unmarked) [Octisalate] | 5.7 | 
CCCCC(CC)COc1ccc(-c2nc(-c3ccc(OC)cc3)nc(-c3ccc(OCC(CC)CCCC)cc3O)n2)c(O)c1 (centres unmarked) [Bemotrizinol, bis-ethylhexyloxyphenol methoxyphenyl triazine] | 10.4 | 
CCCCCCOC(=O)c1ccccc1C(=O)c1ccc(N(CC)CC)cc1O [Uvinul A Plus, diethylamino hydroxybenzoyl hexyl benzoate] | 6.5 | 357
COc1cc(O)c(C(=O)c2ccccc2)cc1S(=O)(=O)O [Sulisobenzone] | 2.2 | 
